# Tested on: Spodoptera litura larvae
# Test: Test for Spodoptera litura larvae (leaf dip)
# Assay type: in vivo
# Conditions: effective component concentration of 500 ppm; 3rd-instar larvae on dipped sweet potato leaves; after 7 days
# Method: In order to obtain a preparation of a proper active compound, 1 part by weight of an active compound was mixed with the stated amounts of solvent and emulsifier and the mixture was diluted to a specified concentration with water.
# The leaves of sweat potatoes were dipped in the test solution diluted to a specified concentration with water. After these leaves were dried in air to remove the chemical solution, they were placed in a Petri dish of 9 cm in diameter, in which 10 Spodoptera litura larvae of the 3rd-instar were set free. The Petri dish was placed in a thermostatic chamber kept at 25° C. and the leaves of sweat potatoes were added after 2 days and 4 days, to examine the number of dead larvae after 7 days, thereby calculating the insecticidal ratio of the chemical solution.
# In this test, an average of the results in two Petri dishes in one section was calculated.
row,Compound,insecticidal ratio [%]
1,"1-(4-{5-[3,5-bis(trifluoromethyl)phenyl]-5-(trifluoromethyl-4,5-dihydroisoxazol-3-yl}-2-nitrophenyl)-2H-tetrazole [Compound 178]",100
2,Fc1cc(C2=NOC(c3cc(Cl)cc(Cl)c3)(C(F)(F)F)C2)ccc1-n1cncn1 (racemic) [Compound 93],100
3,FC(F)(F)C1(c2cc(Cl)cc(Cl)c2)CC(c2ccc(-n3cncn3)cc2Cl)=NO1 (racemic) [Compound 96],100
4,FC(F)(F)c1ccc(C2(C(F)(F)F)CC(c3ccc(-n4cncn4)cc3)=NO2)cc1 (racemic) [Compound 123],100
5,FC(F)(F)c1cc(C(F)(F)F)cc(C2(C(F)(F)F)CC(c3ccc(-n4cncn4)c(Cl)c3)=NO2)c1 (racemic) [Compound 133],100
6,FC(F)(F)C1(c2cc(Cl)cc(Cl)c2)CC(c2ccc(-n3cccn3)cc2)=NO1 (stereo not shown) [Compound 2],100
7,FC(F)(F)C1(c2cc(Cl)cc(Cl)c2)CC(c2ccc(-n3cc(Cl)cn3)cc2)=NO1 (stereo not shown) [Compound 4],100
8,FC(F)(F)C1(c2cc(Cl)cc(Cl)c2)CC(c2ccc(-n3cc(Br)cn3)cc2)=NO1 (stereo not shown) [Compound 5],100
9,N#Cc1cnn(-c2ccc(C3=NOC(c4cc(Cl)cc(Cl)c4)(C(F)(F)F)C3)cc2)c1 (stereo not shown) [Compound 7],100
10,FC(F)(F)C1(c2cc(Cl)cc(Cl)c2)CC(c2ccc(-n3cccn3)c(Cl)c2)=NO1 (stereo not shown) [Compound 8],100
11,O=[N+]([O-])c1cnn(-c2ccc(C3=NOC(c4cc(Cl)cc(Cl)c4)(C(F)(F)F)C3)cc2Br)c1 (stereo not shown) [Compound 12],100
12,N#Cc1cc(C2=NOC(c3cc(Cl)cc(Cl)c3)(C(F)(F)F)C2)ccc1-n1cc(F)cn1 (stereo not shown) [Compound 16],100
13,N#Cc1cc(C2=NOC(c3cc(Cl)cc(Cl)c3)(C(F)(F)F)C2)ccc1-n1cc(Br)cn1 (stereo not shown) [Compound 18],100
14,N#Cc1cc(C2=NOC(c3cc(Cl)cc(Cl)c3)(C(F)(F)F)C2)ccc1-n1cc(I)cn1 (stereo not shown) [Compound 19],100
15,O=[N+]([O-])c1cc(C2=NOC(c3cc(Cl)cc(Cl)c3)(C(F)(F)F)C2)ccc1-n1cccn1 (stereo not shown) [Compound 23],100
16,Cc1cnn(-c2ccc(C3=NOC(c4cc(Cl)cc(Cl)c4)(C(F)(F)F)C3)cc2[N+](=O)[O-])c1 (stereo not shown) [Compound 24],100
17,O=[N+]([O-])c1cc(C2=NOC(c3cc(Cl)cc(Cl)c3)(C(F)(F)F)C2)ccc1-n1cc(Cl)cn1 (stereo not shown) [Compound 26],100
18,O=[N+]([O-])c1cc(C2=NOC(c3cc(Cl)cc(Cl)c3)(C(F)(F)F)C2)ccc1-n1cc(Br)cn1 (stereo not shown) [Compound 27],100
19,O=[N+]([O-])c1cc(C2=NOC(c3cc(Cl)cc(Cl)c3)(C(F)(F)F)C2)ccc1-n1cc(I)cn1 (stereo not shown) [Compound 28],100
20,O=[N+]([O-])c1cc(C2=NOC(c3cc(Cl)cc(Cl)c3)(C(F)(F)F)C2)ccc1-n1cc(C(F)(F)F)cn1 (stereo not shown) [Compound 29],100
21,N#Cc1cc(C2=NOC(c3cc(C(F)(F)F)cc(C(F)(F)F)c3)(C(F)(F)F)C2)ccc1-n1cc([N+](=O)[O-])cn1 (stereo not shown) [Compound 47],100
22,FC(F)(F)C1(c2cc(Cl)cc(Cl)c2)CC(c2ccc(-n3ccnc3)cc2)=NO1 (stereo not shown) [Compound 48],100
23,O=[N+]([O-])c1cc(C2=NOC(c3cc(Cl)cc(Cl)c3)(C(F)(F)F)C2)ccc1-n1ccnc1 (stereo not shown) [Compound 52],100
24,O=[N+]([O-])c1cc(C2=NOC(c3cc(Cl)cc(Cl)c3)(C(F)(F)F)C2)ccc1-n1nccn1 (stereo not shown) [Compound 72],100

# Same assay, conditions: foliar, 168 h; effective component concentration of 500 ppm; 3rd-instar larvae on dipped sweet potato leaves; after 7 days; read-out: insecticidal ratio
row,Compound,pest or weed control at 500 ppm [%]
1,"N#Cc1cc(C2=NOC(c3cc(Cl)cc(Cl)c3)(C(F)(F)F)C2)ccc1-n1cccn1 (stereo not shown) [Compound 13, 5-[5-(3,5-dichlorophenyl)-5-(trifluoromethyl)-4,5-dihydroisoxazol-3-yl]-2-(1H-pyrazol-1-yl)benzonitrile]",100

# From patent US20110086886A2, “INSECTICIDAL ISOXAZOLINES” (Bayer CropScience AG, priority 2006, published 2011)
